According to the SangsterLogP compilation:

logP	Structure (SMILES)
2.68	CC(O)c1ccc2ccccc2c1 (configuration not stated)
2.28	O=Cc1ccccc1Cl
2.89	OCC1c2ccccc2-c2ccccc21
2.58	CC(=O)c1cccc(Br)c1
2.24	Oc1cc2ccccc2cc1O
2.93	CCCc1ccccc1O
1.9	Oc1ccc2cc(O)ccc2c1
3.22	Cc1cc2ccccc2o1
2.19	Oc1cccc2c(O)cccc12
2.28	CC(=O)c1ccccc1Br
1.98	OC1CCCc2ccccc21 (configuration not stated)
2.43	CC(=O)c1cccc(Cl)c1
2.37	OCc1cccc2ccccc12

The next lines start with the compound.

Structure (SMILES)	logP
O=[N+]([O-])c1cc(F)cc(F)c1	2.03
O=C(CBr)c1ccccc1	2.19
O=[N+]([O-])c1cc(F)ccc1F	1.86
O=[N+]([O-])c1ccc(F)cc1	1.89
CC(=O)c1ccc(Br)cc1	2.57
O=Cc1cccc(Cl)c1	2.26
Oc1ccc2c(c1)CCCC2	2.9
O=[N+]([O-])c1ccccc1F	1.84
O=[N+]([O-])c1cccc(F)c1	2.02
